Several values for one entry are separate records, joined by “and”; a condition that tells them apart may be missing. Equal entries are not always repeated. Entries after “also recorded” stand apart in the source; their conditions may differ.
Experiments:
mouse ES cells [1] = experiment: Sox17 endoderm induction in mouse ES cell monolayer cultures; type: cell-based; settings: mouse ES cells; for EC50: 144 h, treatment for 6 days, immunofluorescence, titration 50 nM to 5 μM, read-out: EC50 of Sox17 expression; for percentage of cells expressing Sox17 after 12 hrs treatment: analysed at day 6; for day of treatment at which endoderm induction peaks: 14 days time course; for percent of total cells expressing Sox17 at day 6 of treatment: αSox17 immunofluorescence
Protocol: Mouse ES cells were routinely cultured on irradiated CF-1 MEF feeder cells in DMEM (Gibco) media supplemented with 15% Fetal Bovine Serum (HyClone FBS, Invitrogen), 2 mM L-glutamine (L-Glu, Gibco), 1.1 mM 2-mercaptoethanol (Gibco), 1 mM nonessential amino acids (Gibco), 1× penicillin/streptomycin (P/S, Gibco) and 5×10^5 units LIF (Chemicon). Cells were passaged at the ratio of 1:6-1:12 every 2-3 days using 0.25% trypsin. To generate the starting population, mouse ES cells was cultured on MEF feeder cells until they reached 80-90% confluence. Prior to differentiation, ES cells were passaged onto gelatin coated plates for 30 min to remove MEFs. MEF depleted ES cells were seeded at 2500 cells per cm^2 on gelatinized plates. After overnight culture, cells were exposed to 25 ng/ml Wnt3a (R&D Systems)+50 ng/ml recombinant Activin A (R&D Systems) or 500 ng/ml Nodal (R&D Systems) in DMEM (Gibco) supplemented with 1×L-Glu and 0.2% FBS (Gibco) for 1 day, then Activin A or Nodal in the same media and cultured for 4-6 days to induce endoderm differentiation. For the chemical inductions, compounds IDE1 and IDE2 (provided by Stuart L. Schreiber) were added at 5 μM concentration in the differentiation media. For pancreatic progenitors induction, the cells were transferred to 50 ng/ml FGF10 (R&D Systems), 0.75 μM KAAD-cyclopamine (Calbiochem) and 2 μM RA (Sigma) or Indolactam V 330 nM (Axxora) in DMEM supplemented with 1×L-Glu, 1×PS, 1×B27 (Invitrogen) for 4 days. SHB431542 was purchased from Sigma. All stock compounds were made with either DMSO or PBS
(§1) Cells were fixed in 4% paraformaldehyde (Sigma) in PBS for 20 min at 4° C. followed by a wash with PBS. Cells were blocked with 10% donkey serum (Jackson Immunoresearch) in PBS/0.1% Triton X and incubated with primary antibodies overnight at 4° C. Secondary antibodies were incubated for 1 h at room temperature. The following antibodies and dilutions were used: goat anti-SOX17, (1:500 R&D systems); rabbit anti-PDX1 (1:200, Chemicon), rabbit anti-FoxA2 (1:500; Upstate), rabbit anti-Dab2 (1:200, Santa Cruz), rabbit anti-SPARC (1:200, Santa Cruz,), mouse anti-AFP (1:100, Sigma), anti-Gata6 (1:50, Santa Cruz Biotech), goat anti-HNF6 (1:200, Santa Cruz Biotech), rabbit anti-RFP/DsRed (1:300, MBL), rabbit anti-GFP (1:200, Molecular Probes). Secondary antibodies were: rhodamine Red-X-conjugated donkey anti-goat antibody, 1:200 (JIRL), Alexa-488-conjugated goat anti-mouse and Alexa-594-conjugated goat anti-rabbit antibodies (1:300, Molecular Probes). Nuclei were visualized by Hoechst 33342 (1:1000, Molecular Probes). Images were taken using an Olympus IX70 Microscope. For quantification images were analyzed for the frequency of SOX17+, FoxA2+ or Pdx1+ cells using Metamorph image analysis software (Molecular Devices) and at least 6 images per well were collected. Data were confirmed in four independent experiments.
Endoderm formation was monitored by Sox17 expression by either flow cytometry detection of Sox17/DsRed or immunofluorescence using anti-Sox17 antibodies. Cells labeled by antibody staining were quantified using Metamorph software ad percentage of total cell number (based on Hoechst 33342 nuclei staining). All conditions were tested in either tri- or quadruplicates.

[2] = test system: human ES cells (HUES 4 and 8); experiment: Sox17 endoderm induction in human ES cells; type: cell-based; settings: for dose dependence of Sox17 expression: HUES 4 and 8; for percent of cells expressing Sox17: HUES cells, 4 days, IDE1 100 nM, IDE2 200 nM
Protocol: Human embryonic stem cell lines were cultured essentially as described {Cowan, 2004 #6}. Briefly, HUES4, HUES8 and HUES9 cells are routinely cultured on irradiated CF-1 MEF feeder cells in KnockOut DMEM (Gibco) supplemented with 10% KnockOut Serum Replacement (Gibco), 10% human plasma (Invitrogen), 2 mM L-glutamine (L-Glu, Gibco), 1.1 mM 2-mercaptoethanol (Gibco), 1 mM nonessential amino acids (Gibco), 1× penicillin/streptomycin (PS, Gibco) and 10 ng/ml bFGF (Invitrogen). Cells are split at the ratio of 1:10-1:12 every 4-5 days by using 1 mg/ml collagenase type IV. To induce endoderm formation, HUES cells was cultured on MEF feeder cells till 80-90% confluent, then treated with 100 ng/ml Activin A in advanced RPMI (Gibco) supplemented with 1×L-Glu and 0.2% FBS (Gibco), or with combination of 25 ng/ml Wnt3a (R&D systems)+100 ng/ml Activin A (R&D systems) or were exposed to compounds in the same media. At days 4 and 6 of culture cells were analysed for endodermal marker expression, Sox17.
as §1

mouse ES cells [3] = experiment: Extra-embryonic endoderm markers and morphology of induced Sox17+ cells (immunostaining); type: cell-based; settings: for morphology of induced Sox17+ cells: immunostaining with α-Sox17 antibody; for expression of extra-embryonic endoderm (EE) markers GATA4, SPARC, AFP, Dab2 in induced Sox17+ cells: mouse ES cells, immunostaining
Protocol: as §1
During evaluation of primary hit compounds, the inventors observed that small molecules induced Sox17+ cells with two distinct morphologies. One class, including IDE1 and IDE2, induced clustered populations of Sox17+ cells, whereas other compounds led to the formation of a dispersed population of Sox17+ cells. […] Sox17 is expressed in definitive endoderm, but also in extra-embryonic endoderm, and in other germ layer derivatives at later stages of development including vascular endothelium (Kanai-Azuma et al., 2002; Matsui et al., 2006). Since the positive identification of definitive endoderm is hindered by the lack of unique markers that are expressed exclusively there, and not present in other types of endoderm, the inventors performed a negative selection and tested for markers of extra-embryonic endoderm. It was found, that the vast majority (>95%) of the dispersed Sox17+ cells (class II) also expressed extra-embryonic endoderm markers including Gata4 (Morrisey et al., 1996), SPARC (Mason et al., 1986), AFP (Dziadek, 1979) and Dab2 (Yang et al., 2002) (Suppl. FIG. 2B).

Smad2 = experiment: Western blot analysis of Smad2 phosphorylation in ES cell lysates; type: cell-based, mouse; settings: ES cell lysates, after 24 hrs or longer
Protocol: Cells were lysed in 1×RIPA lysis buffer in the presence of protease inhibitor mixture (Roche)/1% phosphatase inhibitor mixture (Roche). Proteins were separated by 10% Tris-Glycine SDS/PAGE (Bio-rad) under denaturing conditions and transferred to a nitrocellulose membrane. After blocking with 5% skim milk in PBS/0.1% Triton X, the membrane was incubated with primary antibodies against phospho-Smad2 (1:1000, Cell Signaling) overnight at 4° C. The membrane was then washed, incubated with anti-mouse/rabbit peroxidase-conjugated affinity-purified secondary antibody (1:1000, Cell Signaling) at room temperature for 1 h, and developed by SuperSignal chemiluminescence (Pierce).

| SMILES | EC50 (mouse ES cells [1]) [nM] | percentage of cells expressing Sox17 after 12 hrs treatment (mouse ES cells [1]) [%] | day of treatment at which endoderm induction peaks (mouse ES cells [1]) [days] | percentage of cells expressing Sox17 at day 2 of treatment (mouse ES cells [1]) [%] | percent of total cells expressing Sox17 at day 6 of treatment (mouse ES cells [1]) | dose dependence of Sox17 expression [2] | percent of cells expressing Sox17 [2] [%] | morphology of induced Sox17+ cells (mouse ES cells [3]) | expression of extra-embryonic endoderm (EE) markers GATA4, SPARC, AFP, Dab2 in induced Sox17+ cells (mouse ES cells [3]) | phosphorylation of Smad2 / activation of the TGF-β pathway (Smad2) | percentage of cells expressing Sox17 at day 4 of treatment (mouse ES cells [1]; day 4) [%] |
| --- | --- | --- | --- | --- | --- | --- | --- | --- | --- | --- | --- |
| O=C(O)CCCCCC(=O)N/N=C/c1ccccc1C(=O)O [IDE1] | 125 | ~40 | 6 | 34 | 80% and 81±14% | dose-depended manner | 62±8.1 | compact, epithelial sheet | marginal expression of EE markers; also recorded: no or a negligible number of cells positive for extra-embryonic markers | comparable to that induced by Activin A treatment; also recorded: activation of the TGF-β pathway | – |
| O=C(O)CCCCCC(=O)NN=C1CCCC1 [IDE2] | 223 | ~40 | 6 | 32 | 72% and 76±14% | dose-depended manner | 57±6.7 | compact, epithelial sheet | only rarely detected; also recorded: no or a negligible number of cells positive for extra-embryonic markers | comparable to that induced by Activin A treatment; also recorded: activation of the TGF-β pathway | 42±3.83 |
